Data set [1] deals with S. aureus Mu50 (VISA) ATCC 700699. Kind of data set: Neutropenic thigh infection model. Type of data set: in vivo, CD-1 mice. As to conditions: for Log CFU/g thigh: neutropenic thigh infection, Staphylococcus aureus Mu50 ATCC 700699 (VISA), individual animals. As for the experimental part:
Neutropenic mouse thigh infection experiments were performed on female CD-1 mice (Charles River Laboratories, USA). To induce neutropenia, mice received 2 doses of cyclophosphamide on days -4 and -1 with 150 mg/kg, and 100 mg/kg delivered intraperitoneally (IP), respectively. The inoculum of the testing strain, S. aureus Mu50 (VISA) ATCC 700699, was prepared from overnight agar plate cultures. To prepare bacterial inoculums, a portion of the plate was resuspended in sterile saline and adjusted to an OD of 0.12 at 625 nm. Next, the resulted bacterial suspension was further diluted to reach an infecting inoculum of 6.0×10^5 CFU per each mouse. Mice were inoculated with 100 μL of the prepared bacterial suspension via intramuscular injection into the right rear thigh. Plate counts of the inoculum were also performed in each case to confirm inoculum concentration and the actual inoculum size was 6.9×10^5 CFU/mouse. […] Test agent was then dosed via IV administration at 2, 8, 14, and 20 hours postinfection. Beginning at 2 hours, postinfection mice were dosed with either test article or positive control antibiotic. Mice receiving test agents were dosed intravenously at 10 mL/kg. Linezolid was delivered as a subcutaneous dose. Four animals were dosed per group. One group of 4 mice were euthanized at initiation of therapy (T = 2 hours) and CFUs determined. All remaining mice were euthanized at 26 hours postinfection. At termination, thighs were aseptically excised, weighed, and homogenized to a uniform consistency in 2 mL of sterile saline. The homogenate was serially diluted and plated on bacterial growth media. The CFUs were enumerated after overnight incubation.

Data set [2] in a line: in vitro. As to conditions: human.
Method: Cytotoxicity of compounds on HepG2 and MCF-7 mammalian cell lines was determined by using a standard LDH assay. Briefly, HepG2 and MCF-7 cells were cultured in Eagle’s MEM medium (from Gibco) supplemented with 2 mM L-glutamine (Sigma), 100 U/mL penicillin (Sigma), and 100 μg/mL streptomycin (Sigma), and 10% FBS (Gibco) at 37 °C and under 5% CO2. Next, LDH assays were performed according to manufacturer instructions (Thermo Fisher Scientific, Massachusetts, USA). By using a CyQUANT LDH Cytotoxicity Assay Kit. Firstly, the cells were seeded in 96-well microtiter plates at 10^5 cells/mL (100 μL/well) and allowed to attach overnight. […] Lysis buffer (10 μL, Thermo Fisher Scientific) was then added to the maximal LDH activity control wells and incubated additional 45 minutes. The cell culture supernatant (50 μL) was then transferred to a new 96-well plate and mixed with 50 μL of the reaction mixture. After 30 minutes on room temperature, reactions were stopped with 50 μL of the Stop solution. Absorbance (490 nm and 680 nm) was measured with the automatic microplate reader Synergy 4 Hybrid Microplate Reader (BioTek, VT, USA). All experiments were performed in triplicates and repeated 3 times. Statistical significance (P < 0.05) was calculated with 2-tailed Welch’s t-test between treated groups and DMSO. The percentage of cytotoxicity was determined according to the following equation: %Cytotoxicity=(CompoundtreatedLDHactivity-SpontaneousLDHactivity/MaximumLDHactivity-SpontaneousLDHactivity)*100
The test system of data set [3] is S. aureus ATCC 700699 (VISA). Nature of the data set: microbe, parasite or virus in culture. To be noted: for MIC: Staphylococcus aureus, read-out: MIC in adapted strains; for increase in MIC in adapted strains compared with the wild-type strain: lineages adapted to the same compound, S. aureus VISA. The data set is classed as cell-based. As to the method:
Adaptive laboratory evolution experiments followed an established protocol for automated laboratory evolution and aimed to maximize the drug-resistance increment during a fixed time period. […] Experiments were conducted in 96-well plates, in MHBII medium, by utilizing a checkerboard layout to minimize and monitor cross-contamination. These 96-well deep-well plates (0.5 mL, polypropylene, V-bottom) were covered with sandwich covers (Enzyscreen BV) to ensure an optimal oxygen exchange rate and limit evaporation and were shaken at 150 rpm, 37 °C. […] Following cell transfer, each culture was allowed to grow for 48 hours. At each transfer, cell growth was monitored by measuring the OD600 in a BioTek Synergy 2 plate reader. […] Accordingly, only 1 of the 4 populations was retained for each independently evolving strain. This protocol was designed to avoid population extinction and to ensure that populations with the highest level of resistance are propagated further during adaptive evolution. […] Adaptation of populations was terminated after 20 transfers, i.e., 40 days. Following adaptation, cells from each final population were spread onto MHBII agar plates, and individual colonies were isolated. Next, one colony from each adapted line were subjected to capillary sequencing of gyrB and parE to assess their genotype.

Data set [4] relates to S. aureus. Nature of the data set: pH-dependent MIC determination. Type of data set: cell-based. To be noted: Staphylococcus aureus. As for the experimental part: MICs were determined using a standard serial broth microdilution technique according to the CLSI guidelines. Briefly, bacterial strains were inoculated onto MHBII agar plates and were grown overnight at 37 °C. Next, 3 individual colonies from each strain were inoculated into 1 mL MHBII medium and propagated at 37 °C, 250 rpm overnight. In the cases of Enterococcus and Streptococcus sp., cells were plated to BHI agar plates, and BHI broth was used to determine MICs. […] Following dilutions, each well was seeded with 5×10^4 bacterial cells. All measurements were performed in 3 parallel replicates and to avoid possible edge effects in microwell plates, side rows (A and H) were filled with sterile medium. Following inoculations, plates were covered with lids and wrapped in polyethylene plastic bags to minimize evaporation but allow for O2 transfer. Plates were incubated at 37 °C under continuous shaking at 150 rpm for 18 hours. After incubation, OD600 of each well was measured using a BioTek Synergy 2 microplate reader.

For data set [5], the system named is S. aureus VISA ATCC 700699 GyrB R144I and GyrB I175T. Nature of the data set: Second-step frequency-of-resistance assay in GyrB single mutants. Type of data set: cell-based. As to the method:
To determine the spontaneous frequency-of-resistance, approximately 10^10 cells from stationary-phase MHBII broth cultures of S. aureus ATCC 700699 and S. aureus ATCC 43300 were plated to antibiotic-containing plates according to a standard protocol to determine frequency-of-resistance. Prior to plating, bacteria were grown overnight in MHBII medium at 37 °C, 250 rpm, collected by centrifugation, and washed once in equal volumes of MHBII broth. From this concentrated cell suspension (250 μL), approximately 10^10 cells were then plated to each MHBII agarose plates. Using agarose instead of agar reduced drug-adsorption and improved the performance of the assay. […] All experiments were performed in at least 3 replicates. Plates were grown at 37 °C for 72 hours. Total CFUs were determined simultaneously in each experiment by plating appropriate dilutions to antibiotic-free MHBII agar plates. Finally, resistance frequencies for each strain were calculated by dividing the number of colonies formed after a 72-hour incubation at 37 °C by the initial viable cell count.

Data set [6] deals with CHO-K1 cells. Type of data set: cell-based, hamster. To be noted: for % Micronucleated cells / Micronucleus Test Result: 4 hours, CHO-K1; for genetic toxicity: CHO-K1 micronucleus assay, in words. As to the method: Genetic toxicity analysis of compounds was performed in an in vitro micronucleus test, according to the protocol described in Diaz and colleagues (2007), at Eurofins Panlabs (St. Charles, MO, US). Micronucleated cells and micronuclei were enumerated by the use of high-content fluorescent cell imaging. The assay was performed on CHO-K1 cells. […] Experiments were performed in 2 biological replicates. All cell lines were tested as being negative for Mycoplasma contamination.

The mark [7] stands for this setting: S. aureus ATCC 43300 (MRSA), pH 5.5.
Where [8] appears, read: S. aureus ATCC 43300 (MRSA), pH 7.3.
[9] abbreviates: S. aureus ATCC 700699 (VISA), pH 5.5.
Where [10] appears, read: S. aureus ATCC 700699 (VISA), pH 7.3.

Each structure is given as a SMILES string. Where “and” joins values, the source holds several entries; their conditions need not be identical. Equal entries are not always repeated. Where two headings read alike, the source gives them in different places. Some results are limits rather than exact numbers.

With `CC(=O)NC[C@H]1CN(c2ccc(N3CCOCC3)c(F)c2)C(=O)O1` [Linezolid], in data set [1] (50 mg/kg), the “Log CFU/g thigh” value is 5.65 Log CFU/g thigh and 6.12 Log CFU/g thigh and 4.95 Log CFU/g thigh.
As to `Cc1[nH]c(C(=O)Nc2nc3ccc(C(=O)O)cc3s2)c(Cl)c1Cl` [ULD1], in data set [1] (neutropenic murine thigh infection, S. aureus VISA, comparable to linezolid, in words), the “antibacterial activity after intravenous administration” value was “potent antibacterial activity”. Besides, the “Log CFU/g thigh” value was 7.54 Log CFU/g thigh and 7.91 Log CFU/g thigh and 8.09 Log CFU/g thigh and 8.46 Log CFU/g thigh in data set [1] (10 mg/kg); 6.73 Log CFU/g thigh and 6.88 Log CFU/g thigh and 7.28 Log CFU/g thigh and 6.95 Log CFU/g thigh in data set [1] (25 mg/kg); 5.41 Log CFU/g thigh and 5.69 Log CFU/g thigh in data set [1] (50 mg/kg). Besides, the IC50 in data set [2] was over 100 µM. Moreover, the MIC in data set [3] is 1 µg/mL; in data set [4] (setting [7]), 0.004 µg/mL; in data set [4] (setting [8]), 0.1 µg/mL; in data set [4] (setting [9]), 0.00025 µg/mL; in data set [4] (setting [10]), 0.04 µg/mL. In data set [3], the “increase in MIC in adapted strains compared with the wild-type strain” value is listed as 25 fold. In addition, the Resistant colony number entry in data set [5] (VISA GyrB I175T, 4xMIC) is listed as “lawn”; in data set [5] (VISA GyrB I175T, 8xMIC) it was “lawn”; in data set [5] (VISA GyrB R144I, 4xMIC), “lawn”; in data set [5] (VISA GyrB R144I, 12xMIC), 1288; in data set [5] (VISA GyrB R144I, 16xMIC), 454. Also, the Frequency-of-Resistance is on record as 4.57E-08 in data set [5] (VISA GyrB R144I, 12xMIC) and 1.61E-08 in data set [5] (VISA GyrB R144I, 16xMIC). The “% Micronucleated cells” value in data set [6] (1.3 x 10^-4 M) is given as 0.32%; in data set [6] (2.5 x 10^-4 M) it was 0.56%; in data set [6] (3.1 x 10^-5 M), 0.47%; in data set [6] (5.0 x 10^-4 M), 0.57%; in data set [6] (6.2 x 10^-5 M) it was 0.36%. The “Micronucleus Test Result” value was “- (A negative test (-) result indicates P > 0.05 by t-test and percentage of micronucleated cells less than 2-fold higher than the background level)” in data set [6] (1.3 x 10^-4 M); “- (A negative test (-) result indicates P > 0.05 by t-test and percentage of micronucleated cells less than 2-fold higher than the background level)” in data set [6] (2.5 x 10^-4 M); “- (A negative test (-) result indicates P > 0.05 by t-test and percentage of micronucleated cells less than 2-fold higher than the background level)” in data set [6] (3.1 x 10^-5 M); “- (A negative test (-) result indicates P > 0.05 by t-test and percentage of micronucleated cells less than 2-fold higher than the background level)” in data set [6] (5.0 x 10^-4 M); “- (A negative test (-) result indicates P > 0.05 by t-test and percentage of micronucleated cells less than 2-fold higher than the background level)” in data set [6] (6.2 x 10^-5 M). The genetic toxicity entry in data set [6] is reported as “No genetic toxicity”.
For the molecule `Cc1[nH]c(C(=O)Nc2nc3c(OCc4ccccc4)cc(C(=O)O)cc3s2)c(Cl)c1Cl` [ULD2], the IC50 in data set [2] was over 100 µM. Besides, the MIC in data set [3] is 0.5 µg/mL; in data set [4] (setting [7]), 0.008 µg/mL; in data set [4] (setting [8]), 0.06 µg/mL; in data set [4] (setting [9]), 0.0005 µg/mL; in data set [4] (setting [10]) it was 0.02 µg/mL. For the same molecule, in data set [3], the “increase in MIC in adapted strains compared with the wild-type strain” value is on record as 25 fold. Also, the Resistant colony number entry was “lawn” in data set [5] (VISA GyrB I175T, 4xMIC); “lawn” in data set [5] (VISA GyrB R144I, 4xMIC); “lawn” in data set [5] (VISA GyrB R144I, 8xMIC); 1312 in data set [5] (VISA GyrB R144I, 12xMIC); 1 in data set [5] (VISA GyrB R144I, 16xMIC). Also, the Frequency-of-Resistance in data set [5] (VISA GyrB R144I, 12xMIC) turned out to be 4.65E-08; in data set [5] (VISA GyrB R144I, 16xMIC), 3.55E-11. In addition, the “% Micronucleated cells” value in data set [6] (1.3 x 10^-4 M) came out at 1.07%; in data set [6] (2.5 x 10^-4 M), 1.36%; in data set [6] (3.1 x 10^-5 M), 0.57%; in data set [6] (5.0 x 10^-4 M) it was 0.78%; in data set [6] (6.2 x 10^-5 M) it was 0.49%. The “Micronucleus Test Result” value was “- (A negative test (-) result indicates P > 0.05 by t-test and percentage of micronucleated cells less than 2-fold higher than the background level)” in data set [6] (1.3 x 10^-4 M); “- (A negative test (-) result indicates P > 0.05 by t-test and percentage of micronucleated cells less than 2-fold higher than the background level)” in data set [6] (2.5 x 10^-4 M); “- (A negative test (-) result indicates P > 0.05 by t-test and percentage of micronucleated cells less than 2-fold higher than the background level)” in data set [6] (3.1 x 10^-5 M); “- (A negative test (-) result indicates P > 0.05 by t-test and percentage of micronucleated cells less than 2-fold higher than the background level)” in data set [6] (5.0 x 10^-4 M); “- (A negative test (-) result indicates P > 0.05 by t-test and percentage of micronucleated cells less than 2-fold higher than the background level)” in data set [6] (6.2 x 10^-5 M). Moreover, the genetic toxicity result in data set [6] was “No genetic toxicity”.

What is called IC50 is the point on the concentration scale where inhibition reaches its midpoint.

Values taken from publication PMC7561186, “Rational design of balanced dual-targeting antibiotics with limited resistance” (PLoS Biology, 2020).
